Target: Recombinant human BACE-1 (Homo sapiens (Human), UniProt P56817)
Assay: Assay of β-secretase-inhibiting activity
Format: biochemical
Settings: substrate peptide 18 nM, BACE-1 7.4 nM, sodium acetate buffer pH 5.0, 30° C. for 3 hours

Recombinant human BACE-1, sequence (P56817 46-501): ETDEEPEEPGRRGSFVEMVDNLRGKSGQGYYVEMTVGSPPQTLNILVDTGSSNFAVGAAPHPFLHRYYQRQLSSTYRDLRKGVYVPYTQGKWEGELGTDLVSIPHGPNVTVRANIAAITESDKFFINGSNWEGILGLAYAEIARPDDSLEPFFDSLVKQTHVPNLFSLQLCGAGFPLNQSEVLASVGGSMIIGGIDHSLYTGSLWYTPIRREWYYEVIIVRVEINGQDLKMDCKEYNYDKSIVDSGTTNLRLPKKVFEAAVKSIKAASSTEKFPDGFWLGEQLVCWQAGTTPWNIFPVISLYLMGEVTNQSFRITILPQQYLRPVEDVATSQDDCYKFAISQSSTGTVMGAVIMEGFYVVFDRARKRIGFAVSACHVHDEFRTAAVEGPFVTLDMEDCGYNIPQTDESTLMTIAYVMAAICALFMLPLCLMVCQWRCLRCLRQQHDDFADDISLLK

IC50: ≤ 1000 nM
Structure (SMILES): CC1(C)C[C@@](C)(c2cncc(NC(=O)c3ccc(Cl)cn3)c2)N=C(N)S1 [Compound 604]
